Laboratory results from US20240374655A1, “INTESTINAL MICROBIOTA AND GVHD” (Memorial Sloan-Kettering Cancer Center, priority 2014, published 2024).
“Also recorded” adds a separate entry of the source. Each block holds one compound with its values, some of them ahead of it.

How the values were obtained:
murine Blautia = test: In vitro suppression of Blautia by L. johnsonii / Lacto-conditioned media and rescue by reducing agents; format: cell-based; settings: reducing agent added in the presence of Lacto-conditioned media
Description: A) Murine Blautia was grown in peptone yeast glucose broth either alone, or with murine L. johnsonii in conditions of limited media or ample media, and viable colonies were quantified. B) L. johnsonii was allowed to grow in media to plateau phase, then sterile filtered to generate Lacto-conditioned media. Effects of Lacto-conditioned media on the viability of L. johnsonii and murine Blautia were evaluated when mixed with fresh media in a 1:1 ratio. Effects of the addition of 3 reducing agents indicated was also evaluated.
From studying the effects of calorie restriction on intestinal microbiota composition it was observed that obligate anaerobes (Clostridia, Bacteroidetes) are reduced in abundance while facultative anaerobes (Lactobacillos, Proteobacteria) expand. Production of free radicals by E. coli in the setting of starvation has been described previously (Saby S, et al. Appl Environ Microbiol. 1999; 5600-5603). Experiments were designed to examine in vitro if Lactobacillus johnsonii could suppress the growth of our murine Blautia isolate under starvation conditions, and to further investigate if production of free radicals could be a contributing factor. […] The effects of media that had supported the growth of L. johnsonii to plateau phase were further investigated following sterile filtration. […] It was then examined if reducing agents could rescue Blautia from Lacto-conditioned-media-mediated suppression.

[1] = tested on: Blautia isolate of C57BL/6 origin; test: Sugar fermentation by bacterial isolate (pH and optical density in media lacking glucose); format: cell-based
Description: (§1) Utilizing Blautia isolate of C57BL/6 origin, as well as a Lactobacillus johnsonii of C57BL/6 origin, the ability of these bacteria to ferment a variety of sugars was evaluated using pH and optical density to evaluate bacterial growth in media lacking glucose. Lactobacillus johnsonii was evaluated because this bacteria expands in the setting of calorie restriction at the expense of Clostridia, and is thus presumably a direct competitor for nutrients in the murine intestine.

[2] = tested on: Lactobacillus johnsonii of C57BL/6 origin; test: as above; format: cell-based
Description: as §1

[3] = Sugars in drinking water to augment Blautia and mitigate experimental GVHD; format: in vivo, C57BL/6 mice; settings: for GVHD severity / survival of mice with GVHD: 10 g/L in drinking water beginning one week before BMT
Description: Left: Intestinal abundance of Blautia was evaluated on day 14 after BMT, results of a single experiment. Right: Mice were followed for development of clinical GVHD (combined results of 2 experiments).
Mice were followed for development of clinical GVHD (combined results of 3 experiments).
C57BL/6 mice were inoculated orally with a murine Blautia isolate known to ferment xylose. Some mice were then administered xylose in the drinking water (10 g/L) beginning 7 days prior to BMT with B10.BR BM and T cells.

[4] = tested on: 17 strains from a clostridial mix; test: Growth of strains from a clostridial mix in BHI media without glucose with added sugars; format: cell-based, Clostridia; settings: BHI media without glucose plus sugar
Text: Glucose gave the best results and was able to support the growth of 10 of the total 17 strains. Glucose, however would have limited benefit since it likely doesn't give a selective advantage to the beneficial bacteria. Raffinose was able to support 5 strains, while cellobiose appeared to support 4 strains not supported by raffinose. In one embodiment, therefore, a mixture of raffinose and cellobiose can be administered to a subject to provide support for at least a portion of the beneficial bacteria.

Clostridiales = test: Change in Clostridiales abundance in paired stool samples of allo-HSCT patients before and after starting antibiotics; format: in vivo, human; settings: before vs after starting the antibiotic; compared to aztreonam
Text: (A) A retrospective cohort was identified of 283 adult patients who received non-T cell depleted allo-HSCT at our center from 1994 to 2013 and received antibiotics for neutropenic fever. Patients were stratified by exposure to antibiotics with significant activity against anaerobes. Outcomes indicated were depicted by Kaplan-Meier plots and curves compared by the logrank test. (B to G) Six representative clinical cases with time courses depicted of fecal microbiota composition and administration of antibiotic treatments during the course of allo-HSCT. […] (H) Change in abundance of Clostridiales in paired fecal samples from patients undergoing allo-HSCT collected prior to and following treatment with the indicated antibiotics.
For each stool specimen, DNA was purified using a phenol-chloroform extraction technique with mechanical disruption (bead-beating) based on a previously described protocol (60). Samples were analyzed using the 454 GS FLX Titanium platform to sequence the V1-V3 region of the bacterial 16S rRNA gene or were alternatively analyzed using the Illumina MiSeq platform to sequence the V4-V5 region of the 16S rRNA gene. Sequence data were compiled and processed using mothur version 1.34 (61), screened and filtered for quality (62). Operational taxonomic units (OTUs) were classified to the species level (63) using a modified form of the Greengenes reference database (64). Principal component analysis was performed upon a weighted and normalized Unifrac (65) distance matrix of OTU abundance in R software. Data from this study has been stored in the NCBI Sequence Read Archive (see url: www.ncbi.nlm.nih.gov/sra).
HSCT patients were on intestinal bacterial composition. In 2009, our center began to prospectively collect weekly stool samples from patients undergoing allo-HSCT. From this specimen bank, we identified paired stool samples collected from patients prior to as well as following initiation of specific antibiotics during the course of allo-HSCT. […]

[5] = tested on: intestinal microbiota (Clostridiales, Enterococcus); test: Flora composition (16S rRNA sequencing of stool) after antibiotic treatment of healthy mice; format: in vivo, C57BL/6 mice; settings: 100 mg/kg SC twice a day for two days
Description: (§2) FIGS. 16A-16J Imipenem treatment, compared to aztreonam treatment, suppresses anaerobic commensals and elevates GVHD severity in mice. (A) Flora composition analysis using 16S rRNA sequencing prior to and after treatment with the indicated antibiotics in healthy C57BL/6 mice. Mice were treated with subcutaneous (SC) injections of each antibiotic twice a day for two days (500 mg/kg for pip/tazo and 100 mg/kg for others) and stool samples were collected the following day. Values represent mean±SEM (n=3-4). *, P<0.05; **, P<0.01; ****, P<0.0001. Data are representative of two independent experiments. (B to J) Lethally irradiated 129S1 recipients were transplanted with MHC matched C57BL/6 T-cell depleted bone marrow (TCD-BM) cells and 1×10^6 C57BL/6 T cells. Control mice received TCD-BM only. Recipients were treated with imipenem or aztreonam (100 mg/kg, SC, 3 times a week from day 10 to day 24 following allo-HSCT). (B) Comparison of overall survival, with combined data from three independent experiments (n=15-43). ****, P<0.0001. (C) Mice with GVHD treated with antibiotics were sacrificed on day 21 and GVHD histology scores in target organs were quantified by a blinded pathologist. Data are combined from three independent experiments (n=5-20). *, P<0.05. (D) Stool samples obtained from mice treated with imipenem or aztreonam similarly to those in B were collected on day 21 and analyzed by 16S rRNA gene sequencing, followed by principal coordinate analysis of weighted and normalized UniFrac distances. (E and F) Differential taxonomic abundance between aztreonam treated and imipenem treated recipients was analyzed by (E) linear discriminate analysis coupled with effect size measurements (LEfSe) and (F) by LEfSe projected as a cladogram. Data are representative from more than five independent experiments in D to F. (G and H) Comparisons of bacterial abundance at the phylogenetic levels of (G) order, and (H) genus are shown. Data are combined from 6 independent experiments (n=32-36). ***, P<0.001. (I) Stool samples collected from mice with GVHD treated with antibiotics were collected on day 21, and evaluated by metagenomic shotgun sequence analysis, comparison of bacterial species abundance determined by taxonomy. Numbers 1 through 6 along the x-axis represent the individual subjects. (J) Principal component analysis of quantification of sequence reads from KEGG gene orthologs comparing samples from mice treated with aztreonam and imipenem.
To further explore causality and mechanisms of the effects of antibiotics with anaerobic activity on GVHD, we turned to experiments in mice. […] Mice were treated by subcutaneous (SC) injections of each antibiotic twice a day for two days (500 mg/kg for pip/tazo and 100 mg/kg for others) and stool samples were collected, followed by 16S rRNA gene amplification and sequence analysis.

[6] = Antibiotic treatment in MHC-matched minor antigen-mismatched allo-HSCT GVHD model (C57BL/6 into 129S1); format: in vivo; settings: mouse, in vivo
Description: as §2, with “Data are representative from more than five independent experiments in D to F. (G and H) Comparisons of bacterial abundance at the phylogenetic levels of (G) order, and (H) genus are shown. Data are combined from 6 independent experiments (n=32-36). ***, P<0.001.” left out, “Numbers 1 through 6 along the x-axis represent the individual subjects.” left out
(A to G) Lethally irradiated 129S1 recipients were transplanted with C57BL/6 TCD-BM cells with 1×10^6 C57BL/6 T cells. […] (A) Colonic lamina propria-infiltrating leukocytes from recipients were analyzed on day 21 by flow cytometry. […] (C) Lamina propria-infiltrating leukocytes from the colon on day 21 were enriched for CD11b and CD11e simultaneously using a mixture of magnetic beads and IL-23 transcripts were quantified by real time PCR. […] (D) Immunofluorescent staining was used to quantify pSTAT3, CD3, and DAPI positive cells in colonic tissue collected on day 21. […]

SMILES: N[C@@H](CS)C(=O)O [L-cysteine]
Rescue of Blautia growth from Lacto-conditioned-media-mediated suppression (murine Blautia): able to support Blautia growth

SMILES: O=C[C@H](O)[C@@H](O)[C@H](O)CO [xylose]
Fermentation of sugar by Blautia [1]: fermented by Blautia
Fermentation of sugar by Lactobacillus [2]: not by Lactobacillus
GVHD severity / survival of mice with GVHD [3]: improved survival; also recorded: reduced GVHD severity
Intestinal abundance of Blautia ([3]; 10 g/L in drinking water from 7 days before BMT, day 14 after BMT, 16S deep sequencing): expansion of Blautia; also recorded: increased abundance

SMILES: C[C@H](O)[C@H](O)[C@@H](O)[C@@H](O)C=O [rhamnose]
Fermentation of sugar by Blautia [1]: fermented by Blautia
Fermentation of sugar by Lactobacillus [2]: not by Lactobacillus

SMILES: OC[C@H]1O[C@H](OC[C@H]2O[C@H](O[C@]3(CO)O[C@H](CO)[C@@H](O)[C@@H]3O)[C@H](O)[C@@H](O)[C@@H]2O)[C@H](O)[C@@H](O)[C@H]1O [raffinose]
Number of strains whose growth is supported ([4]; of the total 17 strains): 5 strains
GVHD severity / survival of mice with GVHD [3]: reduces GVHD severity

SMILES: O=C([O-])CS.[Na+] [sodium thioglycolate]
Rescue of Blautia growth from Lacto-conditioned-media-mediated suppression (murine Blautia): able to support Blautia growth

Bacteria past the colonic epithelial barrier [6]: not seen
SMILES: C[C@H]1[C@H](NC(=O)/C(=N\OC(C)(C)C(=O)O)c2csc(N)n2)C(=O)N1S(=O)(=O)O [aztreonam]
Change in Clostridiales abundance in stool of patients (Clostridiales): relative preservation of Clostridiales abundances
Abundance of Clostridiales in stool [5]: spared Clostridiales

SMILES: CO/N=C(\C(=O)N[C@@H]1C(=O)N2C(C(=O)[O-])=C(C[N+]3(C)CCCC3)CS[C@H]12)c1csc(N)n1 [cefepime]
Abundance of Clostridiales in stool [5]: spared Clostridiales

SMILES: O=C[C@H](O)[C@@H](O)[C@H](O[C@@H]1O[C@H](CO)[C@@H](O)[C@H](O)[C@H]1O)[C@H](O)CO [cellobiose]
Number of strains supported that are not supported by raffinose [4]: 4 strains

SMILES: O=C1O[C@H]([C@@H](O)CO)C(O)=C1O [ascorbic acid]
Rescue of Blautia growth from Lacto-conditioned-media-mediated suppression (murine Blautia): able to support Blautia growth
